Reference: US6677277B1, “Substituted sulphonyl amino(thio)carbonyl compounds and their use as herbicides” (Bayer Aktiengesellschaft, priority 1996, dated 2004)

Experiments:
Assay type in all cases: in vivo
[1] = tested on: Stellaria; experiment: Post-emergence test/greenhouse; settings: for Stellaria, % damage: rated after three weeks vs untreated control; for % damage, Stellaria: after three weeks
Experimental: (§1) Post-emergence Test Solvent: 5 parts by weight of acetone Emulsifier: 1 part by weight of alkylaryl polyglycol ether To produce a suitable preparation of active compound, 1 part by weight of active compound is mixed with the stated amount of solvent, the stated amount of emulsifier is added and the concentrate is diluted with water to the desired concentration. Test plants which have a height of 5-15 cm are sprayed with the preparation of the active compound in such a way as to apply the particular amounts of active compound desired per unit area. The concentration of the spray liquor is chosen so that the particular amounts of active compound desired are applied in 1000 l of water/ha. After three weeks, the degree of damage to the plants is rated in % damage in comparison to the development of the untreated control. The figures denote: [table]

[2] = tested on: Solanum; experiment: Post-emergence test/greenhouse; settings: post-emergence; for Solanum, % damage: rated after three weeks vs untreated control; for % damage, Solanum: after three weeks
Experimental: as §1

[3] = tested on: Wheat; experiment: Post-emergence test/greenhouse; settings: rated after three weeks vs untreated control
Experimental: as §1

[4] = tested on: Sorghum; experiment: Post-emergence test/greenhouse; settings: post-emergence; for Sorghum, % damage: rated after three weeks vs untreated control; for % damage, Sorghum: after three weeks
Experimental: as §1

[5] = tested on: Ipomoea; experiment: Post-emergence test/greenhouse; settings: for Ipomoea, % damage: rated after three weeks vs untreated control; for % damage, Ipomoea: after three weeks
Experimental: as §1

[6] = tested on: Xanthium; experiment: Post-emergence test/greenhouse; settings: post-emergence; for Xanthium, % damage: rated after three weeks vs untreated control
Experimental: as §1

[7] = tested on: weeds; experiment: Post-emergence test; settings: cf. Tables B-1 to B-4
Experimental: as §1

[8] = tested on: Lolium; experiment: Pre-emergence test/greenhouse; settings: after three weeks
Experimental: (§2) Pre-emergence Test Solvent: 5 parts by weight of acetone Emulsifier: 1 part by weight of alkylaryl polyglycol ether To produce a suitable preparation of active compound, 1 part by weight of active compound is mixed with the stated amount of solvent, the stated amount of emulsifier is added and the concentrate is diluted with water to the desired concentration. Seeds of the test plants are sown in normal soil. After about 24 hours, the soil is sprayed with the preparation of the active compound in such a way as to apply the particular amounts of active compound desired per unit area The concentration of the spray liquor is chosen so that the particular amounts of active compound desired are applied in 1000 l of water/ha. After three weeks, the degree of damage to the plants is rated in % damage in comparison to the development of the untreated control. The figures denote: [table]

[9] = tested on: Chenopodium; experiment: Pre-emergence test/greenhouse; settings: after three weeks
Experimental: as §2

[10] = tested on: Amaranthus; experiment: Pre-emergence test/greenhouse; settings: after three weeks
Experimental: as §2

[11] = tested on: Solanum; experiment: Pre-emergence test/greenhouse; settings: after three weeks
Experimental: as §2

[12] = tested on: Alopecurus; experiment: Pre-emergence test/greenhouse; settings: after three weeks
Experimental: as §2

[13] = tested on: Sorghum; experiment: Pre-emergence test/greenhouse; settings: after three weeks
Experimental: as §2

[14] = tested on: Maize; experiment: Pre-emergence test/greenhouse; settings: after three weeks
Experimental: as §2

[15] = tested on: weeds; experiment: Pre-emergence test; settings: cf. Tables A-1 to A-5
Experimental: as §2

[16] = tested on: Matricaria; experiment: Pre-emergence test/greenhouse; settings: after three weeks
Experimental: as §2

[17] = tested on: Lolium; experiment: Post-emergence test/greenhouse; settings: 60 g ai./ha, after three weeks
Experimental: as §1

[18] = tested on: Alopecurus; experiment: Post-emergence test/greenhouse; settings: 60 g ai./ha, after three weeks
Experimental: as §1

Structure (SMILES)	Stellaria, % damage ([1]; 60 g ai./ha) [%]	Solanum, % damage ([2]; 60 g ai./ha) [%]	Wheat, % damage ([3]; 60 g ai./ha) [%]	Sorghum, % damage ([4]; 60 g ai./ha) [%]	Ipomoea, % damage ([5]; 60 g ai./ha)	Xanthium, % damage ([6]; 60 g ai./ha) [%]	activity against weeds [7]	activity against weeds [15]	% damage, Lolium ([8]; 125 g ai./ha) [%]	% damage, Chenopodium ([9]; 125 g ai./ha) [%]	% damage, Amaranthus ([10]; 125 g ai./ha) [%]	% damage, Matricaria ([16]; 125 g ai./ha) [%]	% damage, Solanum ([11]; 125 g ai./ha) [%]	% damage, Alopecurus ([12]; 125 g ai./ha) [%]	% damage, Sorghum ([13]; 125 g ai./ha) [%]	% damage, Maize ([14]; 125 g ai./ha) [%]	other results
CCSc1cccc(OC(F)(F)F)c1S(=O)(=O)NC(=O)n1nc(CC)n(C)c1=O [Example 39]	90	95	20	80	80%	95	very strong activity										
CCc1nn(C(=O)NS(=O)(=O)c2c(SC)cccc2C(F)(F)F)c(=O)n1C [Example 63]								very strong activity									% damage, Lolium ([8]; 60 g ai./ha): 70%; % damage, Chenopodium ([9]; 60 g ai./ha): 100%; % damage, Amaranthus ([10]; 60 g ai./ha): 100%; % damage, Solanum ([11]; 60 g ai./ha): 100%; % damage, Alopecurus ([12]; 60 g ai./ha): 100%; % damage, Sorghum ([13]; 60 g ai./ha): 100%; % damage, Maize ([14]; 60 g ai./ha): 0%
CCOc1nn(C(=O)NS(=O)(=O)c2c(C)cccc2SC)c(=O)n1C [Example 48]	60	90	5	100	90%	95	very strong activity										
CCSc1cccc(SCC)c1S(=O)(=O)NC(=O)n1nc(CC)n(C)c1=O [Example 44]	80	95	10	70	95%	100	very strong activity										
CSc1cccc(OC(F)(F)F)c1S(=O)(=O)NC(=O)n1nc(SC)n(C)c1=O [Example 33]								very strong activity	100	100	100	100	100	100	100	10	
CCSc1cccc(SCC)c1S(=O)(=O)NC(=O)n1nc(OC)n(C)c1=O [Example 46]	95	95		70	9S	100	very strong activity										
CCOc1nn(C(=O)NS(=O)(=O)c2c(SC)cccc2SC)c(=O)n1C [Example 52]							very strong activity										% damage, Lolium [17]: 60%; % damage, Stellaria ([1]; 60 g ai./ha): 95%; % damage, Solanum ([2]; 60 g ai./ha): 95%; % damage, Alopecurus [18]: 90%; % damage, Sorghum ([4]; 60 g ai./ha): 100%; % damage, Ipomoea ([5]; 60 g ai./ha): 90%; % damage, Xanthium ([6]; 60 g ai./ha, after three weeks): 95%
CCSc1cccc(C(F)(F)F)c1S(=O)(=O)NC(=O)n1nc(SC)n(C)c1=O [Example 14]								very strong activity		100	70	100	100	100	90	0	
COc1cccc(SCCF)c1S(=O)(=O)NC(=O)n1nc(OC)n(C)c1=O [Example 57]								very strong activity	100	100	100			100	100		
CSc1cccc(C(F)(F)F)c1S(=O)(=O)NC(=O)n1nc(SC)n(C)c1=O [Example 62]								very strong activity									% damage, Lolium ([8]; 60 g ai./ha): 100%; % damage, Chenopodium ([9]; 60 g ai./ha): 100%; % damage, Amaranthus ([10]; 60 g ai./ha): 100%; % damage, Solanum ([11]; 60 g ai./ha): 100%; % damage, Alopecurus ([12]; 60 g ai./ha): 100%; % damage, Sorghum ([13]; 60 g ai./ha): 90%; % damage, Maize ([14]; 60 g ai./ha): 10%
CCc1nn(C(=O)NS(=O)(=O)c2c(OC)cccc2SC)c(=O)n1C [Example 22]							very strong activity	very strong activity	100		100	60	100	100	80	30	% damage, Lolium [17]: 90%; % damage, Stellaria ([1]; 60 g ai./ha): 90%; % damage, Solanum ([2]; 60 g ai./ha): 80%; % damage, Alopecurus [18]: 90%; % damage, Sorghum ([4]; 60 g ai./ha): 95%; % damage, Ipomoea ([5]; 60 g ai./ha): 80%
CCSc1cccc(OC)c1S(=O)(=O)NC(=O)n1nc(CC)n(C)c1=O [Example 8]								very strong activity	80	100	100		60	100		0	
CCOc1nn(C(=O)NS(=O)(=O)c2c(SCC)cccc2C(F)(F)F)c(=O)n1C [Example 11]	90	70	0		90%	90	very strong activity	very strong activity	90	100	100	100	100	100	100	10	
CCOc1nn(C(=O)NS(=O)(=O)c2c(SCC)cccc2SCC)c(=O)n1C [Example 43]	90	95	20	70	95%	100	very strong activity										
CCOc1nn(C(=O)NS(=O)(=O)c2c(Cl)cccc2SC)c(=O)n1C [Example 1, 5-ethoxy-4-methyl-2-(2-chloro-6-methylthio-phenylsulfonyl-aminocarbonyl)-2,4-dihydro-3H-1,2,4-triazol-3-one]								very strong activity	70	60	90	70	100	95	90	0	
CCSc1cccc(C(F)(F)F)c1S(=O)(=O)NC(=O)n1nc(OC)n(C)c1=O [Example 13]	95	95	0	80	90%		very strong activity	very strong activity	90	100	100	100	100	90	100	0	
CCSc1cccc(C)c1S(=O)(=O)NC(=O)n1nc(OC)n(C)c1=O [Example 53]							very strong activity										Stellaria, % damage ([1]; 125 g ai./ha): 90%; Solanum, % damage ([2]; 125 g ai./ha): 59%; Wheat, % damage ([3]; 125 g ai./ha): 20%; Sorghum, % damage ([4]; 125 g ai./ha): 95%; Ipomoea, % damage ([5]; 125 g ai./ha): 95%; Xanthium, % damage ([6]; 125 g ai./ha): 100%
COc1nn(C(=O)NS(=O)(=O)c2c(OC(F)(F)F)cccc2SC)c(=O)n1C [Example 32]								very strong activity									% damage, Lolium ([8]; 30 g ai./ha): 100%; % damage, Chenopodium ([9]; 30 g ai./ha): 100%; % damage, Amaranthus ([10]; 30 g ai./ha): 100%; % damage, Matricaria ([16]; 30 g ai./ha): 90%; % damage, Solanum ([11]; 30 g ai./ha): 95%; % damage, Alopecurus ([12]; 30 g ai./ha): 90%; % damage, Sorghum ([13]; 30 g ai./ha): 90%; % damage, Maize ([14]; 30 g ai./ha): 5%
